Source: patent US20120238630A1, “COMPOSITIONS COMPRISING NONSTEROIDAL ANTI - INFLAMMATORY DRUGS” (Alfa Wassermann S.P.A., priority 2009, published 2012)

Assay: Bioavailability / systemic FP plasma concentration after oral nebulization of the liquid composition containing FP
Format: in vivo, human
Description: The solutions have been administered to 26 healthy volunteers, among whom 16 were males and 10 females, aged between 18 and 55.
The healthy volunteers received the pharmaceutical composition prepared according to Example 1 in two 200 μl nebulizations three times a day, for a seven-day period, then a single administration on the eighth day.
[…]
During the period of administration of the composition object of the present invention, blood samples were taken before each administration and on days 1, 4, 6, 7 and 8.
The plasma concentration was determined for each patient before the first dose and, successively, in the morning of the days 1, 4, 6, 7 and 8 and after 1, 2, 3, 4, 6, 8, 10, 12, 16 and 24 hours since the last treatment.
Each sample was moved into a test tube containing heparin and centrifuged, and the plasma was divided into 500 μl aliquots and freezed at −80° C.
The following parameters were determined:
Tmax: time wherein Cmax is reached.
AUC: area subtended to the concentration-time curve calculated by means of the linear trapezoidal rule.

[1] = after the last administration (day 8)

FP average plasma concentrations (1 hour after the last administration (day 8)): 0.182 µg/mL
FP average plasma concentrations (2 hours after the last administration (day 8)): 0.144 µg/mL
FP average plasma concentrations (3 hours after the last administration (day 8)): 0.115 µg/mL
FP average plasma concentrations (4 hours after the last administration (day 8)): 0.096 µg/mL
FP average plasma concentrations (6 hours after the last administration (day 8)): 0.067 µg/mL
FP average plasma concentrations (8 hours after the last administration (day 8)): 0.045 µg/mL
FP average plasma concentrations (10 hours after the last administration (day 8)): 0.029 µg/mL
FP average plasma concentrations (12 hours after the last administration (day 8)): 0.020 µg/mL
FP average plasma concentrations (16 hours after the last administration (day 8)): 0.008 µg/mL
FP average plasma concentrations (24 hours after the last administration (day 8)): 0.001 µg/mL
FP systemic concentrations (after repeated oral nebulization, healthy volunteers): very low
AUC0-inf. [1]: 1140 ng·h/mL
AUC0-inf. higher than the AUC at the last point [1]: ca. 20%
Cmax (after the last administration (day 8), Example 1 composition nebulized in oral cavity, healthy volunteers): 182 ± 50 ng/mL
Tmax (after the last administration (day 8), Example 1 composition, healthy volunteers): 1 h
AUC0-24 (after the last administration (day 8), linear trapezoidal rule): 940 ng·h/mL
FP average plasma concentrations (day 1, time 0 (before the first dose), Example 1 composition, 26 healthy volunteers): 0.000 µg/mL
FP average plasma concentrations (day 4, time 0, two 200 μl nebulizations three times a day, Example 1 composition): 0.043 µg/mL
FP average plasma concentrations (day 6, time 0, two 200 μl nebulizations three times a day, Example 1 composition): 0.042 µg/mL
FP average plasma concentrations (day 7, time 0, two 200 μl nebulizations three times a day, Example 1 composition): 0.039 µg/mL
FP average plasma concentrations (day 8, time 0, after seven days of two 200 μl nebulizations three times a day, Example 1 composition): 0.040 µg/mL
amount absorbed, times lower than solutions of the same concentration administered by oral route (oropharyngeal application versus literature oral data (Stalker 1991; Gonzalez-Younes 1991)): about 10 times
FP accumulation in plasma after repeated administrations (three times a day for seven days, plasma on days 1, 4, 6, 7 and 8): no FP accumulation
Substance: 2-(2-fluoro-4-phenyl-phenyl) propionic acid [FP]
